The nature of the series: Pharmacokinetics of single ascending doses (SAD Cohorts 1 and 2) in patients with stable HFrEF. In kind it is in vivo, human. The source says:
This example describes a study to establish preliminary safety and tolerability of single- and multiple-ascending oral doses of Compound I in ambulatory patients with stable heart failure with reduced ejection fraction (HFrEF). Key eligibility criteria included stable HFrEF of ischemic or nonischemic origin, treated with guideline-directed medical therapy (EF initial requirement during Screening was 20 to 45%, and was later changed by amendment to 15 to 35%). Subjects with active ischemia or severe or valvular heart disease were excluded. The study also aimed (1) to establish preliminary human PK of Compound I after single- and multiple-ascending oral doses of Compound I in patients with HFrEF; (2) to determine changes in left ventricular stroke volume (LVSV) derived from left ventricular outflow tract-velocity time integral (LVOT-VTI), left ventricular ejection fraction (LVEF) and change in left ventricular fractional shortening (LVFS) with Compound I after ascending single and multiple doses compared with Baseline and placebo as measured by transthoracic echocardiography (TTE); (3) to determine changes in systolic ejection time (SET) with Compound I after ascending single and multiple doses compared with Baseline and placebo as measured by TTE; and (4) to determine changes in pharmacodynamics (PD) dose/concentration effects (change in LVSV (derived from LVOT-VTI), LVEF, LVFS) with Compound I compared with Baseline and placebo after ascending single and multiple doses, as measured by TTE.
Part 1 was a randomized, crossover, DB, placebo-controlled, two-cohort, sequential ascending (oral) single-dose study in ambulatory patients with heart failure. All patients received placebo and 2 or 3 active doses of Compound I. Each patient underwent sequential, single-dose treatment events separated by no fewer than 5 days and no more than 14 days. Patients in Cohort 1 may also return for a fourth dosing period (open label) after the SRC reviews available data and recommends the dose. Patients enrolled prior to the implementation of Amendment 1 may be offered the opportunity to return for the open-label period. Patients in Cohort 2 participated in 2 to 4 dosing periods, based on SRC decision. Patients were randomized to one of the different dosing sequences outlined in FIG. 5A. Multiple patients could be dosed at the same time or during the same week depending on administrative issues, i.e., capacity and scheduling.
For each dosing period, patients were admitted to the clinical site on Day-1. Patients were assessed for absence of exclusion criteria (e.g., new lab abnormalities and/or conditions that indicate the patient is clinically unstable). They received Compound I or placebo in the morning of Day 1 followed by serial PK and PD assessments, as well as serial safety assessments. Patients were discharged on Day 3 (i.e., ˜48 hours following Day 1 dosing). An additional outpatient plasma PK sample was taken on the morning of Day 4 at 72 hours postdose.
Study medication consisted of Compound I 5 mg tablets, 25 mg tablets, 100 mg tablets, or matching placebo tablets. In Part 1 (SAD), Compound I or placebo was administered after an overnight fast (at least 6 hours), while in Part 2 (MAD), Compound I was administered after a 2 hour fast (Cohort A) or with food (Cohorts B, C, and D). The dose was ingested with a minimum of 240 mL of water, but more water was ingested as needed. The entire dose was administered over a period of up to 15 minutes. The time of dose used to determine future assessments was the time the last tablet was taken. In the cohorts for Part 2 (MAD), a BID regimen was used.
In Part 1 (SAD), patients fasted overnight (approximately 6 hours) through 4 hours postdose. With the exception of the water consumed with the dose, water could be ingested until approximately 1 hour prior to dosing and approximately 1 hour after dosing. If doses were split, subjects fasted 6 hours prior to the first half-dose. […]

From patent US20250325531A1, “TREATMENT OF SYSTOLIC DYSFUNCTION” (MyoKardia, Inc., priority 2024, published 2025) come the findings set out here.

With `Cn1cc(S(=O)(=O)[C@@](C)(F)C2CCN(C(=O)Nc3ccon3)CC2)c(C(F)F)n1` [Compound I, (R)-4-(1-((3-(difluoromethyl)-1-methyl-1H-pyrazol-4-yl)sulfonyl)-1-fluoroethyl)-N-(isoxazol-3-yl) piperidine-1-carboxamide], the “mean (SD) Cmax” value (350 mg single dose, fasted) is 2760 (856) ng/mL. For the same compound, the “AUC0-∞” value (SAD Cohort 1, 175 mg (n = 8)) is reported as 53,800 hr × ng/mL; the “AUC0-∞” value (SAD Cohort 1, 350 mg (n = 8)) is listed as 103,000 hr × ng/mL; the “AUC0-∞” value (SAD Cohort 1, 525 mg (n = 2)) is listed as 127,000 hr × ng/mL. Further, the Cmax (in general, the peak of the concentration-time curve) (SAD Cohort 1, 350 mg (n = 8)) is 2760 ng/mL. Moreover, the AUC0-24 (SAD Cohort 1, 4th dose 350 mg (n = 1)) is reported as 70,100 hr × ng/mL.
